Experimental data published in article PMC9896555, “Cyclic Acetals as Novel Long-Lasting Mosquito Repellents” (Journal of Agricultural and Food Chemistry, 2023).
“And” between values parts separate entries of the source, which are not always exact repeats. Identical values can stand only once. “Also recorded” adds a separate entry of the source. Like-named read-outs stand apart in the source and are kept apart here.

Assays:
Caco-2 monolayer = assay: Transwell permeation test; type: in vitro ADME; conditions: 82 μg/mL apical, 3 h
Method: To evaluate the possibility of absorption after topical application, we tested the permeation through a Caco-2 monolayer for those compounds best performing in terms of protection time and cytotoxicity. The colorectal adenocarcinoma cell line Caco-2 was purchased from ATCC and cultured in DMEM with 20% FBS, L-glutamine (2 mM), and 1% penicillin–streptomycin 100 U/mL (Thermo Fisher Scientific, Rodano, Milan, Italy) in 5% CO2 at 37 °C.
For the permeation studies, Caco-2 cells, a model of epithelial cells, were seeded into 12-well PET Transwell plates (1.13 cm^2 growth surface area and pore size 0.4 μm, Greiner Bio-One, Milan, Italy) at a density of 2 × 10^5 cells/cm^2 and grown for 21 days to form a confluent monolayer. The integrity of the cellular barrier was then assessed using Lucifer Yellow (LY) permeability test, before the experiments.[33]
After washing, the monolayers were preincubated for 20 min at 37 °C with 0.5 and 1.5 mL of the incubation medium, HBSS/HEPES 25 mM in the apical and basolateral sides, respectively. […] At the end of the experiment, the layer integrity was re-evaluated. […]
One hundred microliters of the collected media was extracted in 100 μL of heptane by vortexing the vial for 2 min; 70 μL of this solution was recovered; and 1 μL was injected in a 7820 GC system-5977B MSD system and analyzed under the same conditions reported in paragraph 2.2. […]

RAW 264.7 = assay: Immunogenicity on murine macrophages (nitric oxide release); type: cell-based; conditions: RAW264.7, 82 μg/mL, 6 h
Method: Cells were cultured in DMEM, with 10% FBS, 1% L-glutamine (2 mM), and 1% penicillin–streptomycin 100 U/mL at 37 °C in an atmosphere containing 5% CO2. RAW264.7 were seeded (1 × 10^5 cells/well) and exposed to five derivatives or Icaridin, at 82 μg/mL or to LPS (1 μg/mL) as a positive control, for 3 and 6 h. After that, nitric oxide release was determined in the culture media as previously described.[32] Experiments were performed in triplicate.

Aedes albopictus [1] = assay: Effective dose / protection efficacy, human-bait technique; type: in vivo; conditions: for pest or weed control at 0.081 µg/cm2, 0.081 µg/cm2 / pest or weed control at 0.17 µg/cm2, 0.17 µg/cm2 / pest or weed control at 0.33 µg/cm2, 0.33 µg/cm2 / pest or weed control at 0.5 µg/cm2, 0.5 µg/cm2 / pest or weed control at 0.83 µg/cm2, 0.83 µg/cm2 / pest or weed control at 1.7 µg/cm2, 1.7 µg/cm2 / pest or weed control at 8.3 µg/cm2, 8.3 µg/cm2 / pest or weed control at 16.7 µg/cm2, 16.7 µg/cm2 / pest or weed control at 83.3 µg/cm2, 83.3 µg/cm2: Aedes albopictus, topical, read-out: Protection efficacy PE%; for Protection efficacy (dose to obtain complete protection (100%) from bite attempts): applied on skin of volunteers, 3 min exposure
HaCaT cells = assay: Cytotoxicity on human keratinocytes (MTS); type: cell-based; conditions: 82 μg/mL, 24 h
Method: HaCaT cells were cultured in 5% CO2 at 37 °C in Dulbecco’s modified Eagle’s medium (DMEM), supplemented with 10% fetal bovine serum (FBS), 1% L-glutamine ([…]), and 1% penicillin–streptomycin (Thermo Fisher Scientific, Rodano, Milan, Italy). […] Experiments were performed in triplicate.

Aedes albopictus [2] = assay: Protection time at 0.17 mg/cm2, human-bait technique; type: in vivo; conditions: for pest or weed control at 0.17 mg/cm2, 0.17 mg/cm2: Aedes albopictus, topical, read-out: Protection time PE%; for Average PT >95% (% coefficient of variation) / Estimated 100% PT (complete protection time, mean±SE): at the dose of 0.17mg/cm2; for Estimated 100% PT (complete protection time, mean±SE): Kaplan–Meier estimate; for Protection time (95% protection): dose of 0.17 mg/cm^2, tests ended after 8 h
Procedure, shortened: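 Human-bait test with 100 μL of 5% ethanol solution applied to skin (0.17 mg/cm2); ethanol-treated hand as negative control. Repellency checked hourly up to 8 h on up to 8 volunteers; protection time taken as mean time with >95% protection, complete protection time estimated by Kaplan–Meier.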

SMILES | permeability value lower compared to Icaridin (Caco-2 monolayer) [%] | immunogenicity (nitric oxide release / nitrite production), in words (RAW 264.7) | pest or weed control at 0.081 µg/cm2, 0.081 µg/cm2 (Aedes albopictus [1]) [%] | pest or weed control at 0.17 µg/cm2, 0.17 µg/cm2 (Aedes albopictus [1]) [%] | pest or weed control at 0.33 µg/cm2, 0.33 µg/cm2 (Aedes albopictus [1]) [%] | pest or weed control at 0.5 µg/cm2, 0.5 µg/cm2 (Aedes albopictus [1]) [%] | pest or weed control at 0.83 µg/cm2, 0.83 µg/cm2 (Aedes albopictus [1]) [%] | pest or weed control at 1.7 µg/cm2, 1.7 µg/cm2 (Aedes albopictus [1]) [%] | pest or weed control at 8.3 µg/cm2, 8.3 µg/cm2 (Aedes albopictus [1]) [%] | pest or weed control at 16.7 µg/cm2, 16.7 µg/cm2 (Aedes albopictus [1]) [%] | pest or weed control at 83.3 µg/cm2, 83.3 µg/cm2 (Aedes albopictus [1]) [%] | Protection efficacy (dose to obtain complete protection (100%) from bite attempts) (Aedes albopictus [1]) [μg/cm^2] | survival of keratocytes (HaCaT cells) | pest or weed control at 0.17 mg/cm2, 0.17 mg/cm2 (Aedes albopictus [2]; 0.17mg/cm2, 1 h) [%] | pest or weed control at 0.17 mg/cm2, 0.17 mg/cm2 (Aedes albopictus [2]; 0.17mg/cm2, 2 h) [%] | pest or weed control at 0.17 mg/cm2, 0.17 mg/cm2 (Aedes albopictus [2]; 0.17mg/cm2, 3 h) [%] | pest or weed control at 0.17 mg/cm2, 0.17 mg/cm2 (Aedes albopictus [2]; 0.17mg/cm2, 4 h) [%] | pest or weed control at 0.17 mg/cm2, 0.17 mg/cm2 (Aedes albopictus [2]; 0.17mg/cm2, 5 h) [%] | pest or weed control at 0.17 mg/cm2, 0.17 mg/cm2 (Aedes albopictus [2]; 0.17mg/cm2, 6 h) [%] | pest or weed control at 0.17 mg/cm2, 0.17 mg/cm2 (Aedes albopictus [2]; 0.17mg/cm2, 7 h) [%] | also measured
OCC1COC2(CCCCCCC2)O1 (stereo not shown) [12a] | 44 | did not exhibit immunogenicity; also recorded: indistinguishable from the negative control | 46.3 | 58.9 | 62.2 | 87 | 90.7 | 100 | 100 | 100 | 100 | 1.7 | > 88% and 100% | 100 | 100 | 100 | 100 | 100 | 97.1 | 96.9 | 100% PE (Aedes albopictus [1]; Table S1): 1.7 µg/cm2; pest or weed control at 0.17 mg/cm2, 0.17 mg/cm2 (Aedes albopictus [2]; 0.17mg/cm2, 8 h): 100%; Average PT >95% (% coefficient of variation) (Aedes albopictus [2]): 480 (0) min; Estimated 100% PT (complete protection time, mean±SE) (Aedes albopictus [2]): 380 ± 20 min; Protection time (95% protection) (Aedes albopictus [2]): 8 h
CC(C)CC1(CC(C)C)OCC(C)(CO)CO1 [17b] | 17 | did not exhibit immunogenicity; also recorded: indistinguishable from the negative control | 8.33 | 27.8 | 50.8 | 44.4 | 58.1 | 94.8 | 100 | 100 | 100 | 8.3 | > 88% and 92% | 100 | 98.7 | 99.1 | 100 | 96.8 | 93.6 | 95.6 | pest or weed control at 0.17 mg/cm2, 0.17 mg/cm2 (Aedes albopictus [2]; 0.17mg/cm2, 8 h): 96.5%; Average PT >95% (% coefficient of variation) (Aedes albopictus [2]): 480 (5.0) min; Estimated 100% PT (complete protection time, mean±SE) (Aedes albopictus [2]): 300 ± 94 min; Protection time (95% protection) (Aedes albopictus [2]): 8 h
